In patent US20240000783A1, “COMBINATION THERAPY” (Pfizer Inc., priority 2020, published 2024) one finds inhibition data, which are given here for 3 compounds.

The experiment deals with LNCaP prostate cancer cells (AR+ spheroids). Briefly: Multicellular tumor spheroid growth assay. The experiment is classed as cell-based. Conditions: Homo sapiens, single agent, read-out: SGI % (percent spheroid growth inhibition); for inhibition at 0.1 µM: 100 nM; for inhibition at 1 µM: 1000 nM. On the procedure: Example 1—Multicellular Tumor Spheroid Growth Assay in Human AR+ Prostate Cancer Cells (LNCaP) LNCaP prostate cancer cells were obtained from the ATCC and maintained in RPMI 1640 medium supplemented with 10% fetal bovine serum and penicillin-streptomycin as per ATCC guidelines. Cells were maintained in humidified incubator at 37° C. with 5% CO2. Spheroid assays were performed in 96 well ultralow attachment plates (ULA-96U) from Nexcelom & Thermo Fisher Scientific. […] To aid spheroid formation, dispensed cells were centrifuged at 220×g for 6 minutes in the ultralow attachment plates and allowed to form compact spheroids for 4 days prior to the initiation of treatment. After spheroids were formed, 150 μL of medium was aspirated from each well without disturbing the spheroid, and fresh RPMI medium of the same volume was added containing single agent compounds (palbociclib, COMPOUND A, or enzalutamide), or selected combinations thereof. Final concentrations of each compound in the wells were: 30 or 100 nM for palbociclib; 100, 300 or 1000 nM for COMPOUND A; and 1000 nM for enzalutamide. DMSO (0.01%) was used as the vehicle control. DMSO and all compounds were diluted in cell medium. Medium and compounds were replenished twice per week, with 3 and 4-day intervals. Replenishment was executed by aspirating 150 μL of medium per well without disturbing the spheroid and then adding the same volume of premixed medium/compound solution to spheroids. In some cases, an extended phase of treatment was followed by a ‘recovery’ phase where medium was replenished without addition of compounds. Spheroid diameter was quantified immediately following each medium change twice a week (on every 3rd or 4th day) throughout the duration of the assay. Growth of these MCTS was monitored over time to assess: (i) amplitude of response (SGI) and (ii) duration of response to single agents and combination treatments while on treatment. Average diameters of tumor spheroids were plotted in GraphPad Prism 8 and the area-under-curve (AUC) was calculated. AUC baseline was determined by the average tumor spheroid diameter at Day 0 in the vehicle (DMSO) controls. Spheroid growth inhibition, SGI, for all treatment arms was derived at the timepoint when the vehicle (DMSO) treated spheroids reach their maximal diameter (usually close to 1 mm but this can differ among cell lines); this corresponds to the last time point taken for the vehicle (DMSO) treated spheroids. SEM calculated based on n=10 to 12 wells per test group. Percent spheroid growth inhibition, or SGI %, was calculated as follows: SGI %=(1-AUC treatment/AUC DMSO)×100%.

A word on the inhibition: it is the share of the control response that was lost under treatment.

For the compound `CC(C)n1c(C(C)(C)O)nc2c(F)cc(-c3nc(N[C@@H]4CCOC[C@H]4O)ncc3Cl)cc21` [COMPOUND A, 1,5-anhydro-3-({5-chloro-4-[4-fluoro-2-(2-hydroxypropan-2-yl)-1-(propan-2-yl)-1H-benzimidazol-6-yl]pyrimidin-2-yl}amino)-2,3-dideoxy-D-threo-pentitol], the inhibition at 0.1 µM stood at 27% and the inhibition at 1 µM amounted to 53%. Besides, where the note is “300 nM”, the inhibition at 0.3 µM is 38%.
As to `CNC(=O)c1ccc(N2C(=S)N(c3ccc(C#N)c(C(F)(F)F)c3)C(=O)C2(C)C)cc1F` [enzalutamide, 4-[3-[4-cyano-3-(trifluoromethyl)phenyl]-5,5-dimethyl-4-oxo-2-thioxo-1-imidazolidinyl]-2-fluoro-N-methyl-benzamide], the inhibition at 1 µM was 46%.
As to `CC(=O)c1c(C)c2cnc(Nc3ccc(N4CCNCC4)cn3)nc2n(C2CCCC2)c1=O` [palbociclib], the inhibition at 0.1 µM is 24%. Also, the inhibition at 0.03 µM (30 nM) was 5%.
